Assay results from paper PMC4696656, “Insights into the Mechanism of Action of Bactericidal Lipophosphonoxins” (PLoS ONE, 2015).
In brackets after ≈: the same amount, converted by molar mass. Several values for one entry are separate records, joined by “and”; a condition that tells them apart may be missing. Equal values may be shown once. Read-outs that look alike come from different tables or passages of the source.

Assays:
[1] = Critical micellar concentration (conductometry); format: physicochemical; conditions: 37°C
Method: Critical micellar concentration (CMC) values were measured (using conductometry method, COND 7, XS Laboratories instrument) and calculated according to literature procedure. LogD values were calculated using software package ACD Labs.

Bacillus subtilis = assay: MIC, standard microdilution method; conditions: Bacillus subtilis
[2] = tested on: Enterococcus faecalis CCM 4224; assay: MIC, standard microdilution method; conditions: CCM4224, 24 h
[3] = tested on: Enterococcus faecium VanA 419/ana; assay: MIC, standard microdilution method; conditions: VANA419/ANA, 24 h
[4] = Carboxyfluorescein leakage assay, LUV from bacterial lipids; format: biochemical, Bacillus subtilis; conditions: for Hill coefficient n, rapid initial phase of CF release: LPPO 0.8 mg/L, 60 μM phospholipid, 25°C
Method: Bacterial phospholipids were extracted with hexane/2-propanol (3:2, v/v) mixture from B. subtilis 168 cell biomass (2000 ml of culture in LB medium) harvested in exponential phase by rapid filtration (Synpor no. 5 filter, Pragochema, Czech Republic). Phospholipids from human erythrocytes (0.5 ml, volunteer blood donor) were extracted with chloroform/2-propanol mixture (7:11, v/v) after hemolysis using distilled water. After evaporation of the solvent in vaccuo at 40°C, the phospholipids were dissolved in chloroform, filtered through glass fiber filters (Whatman) and concentrated under a stream of nitrogen. The lipid samples were stored at -80°C and used for liposome preparation.
Vesicles to be used in the carboxyfluorescein (CF) leakage assay were prepared by mixing the appropriate amount of lipids (1 mg/ml) with chloroform/methanol 2:1 (v/v). The solvent was subsequently evaporated under a nitrogen gas stream obtaining a thin film on the walls of a glass tube. The hydration procedure in a buffer containing 50 mM CF, 5 mM HEPES pH 7.4 lasted for 60 min at 40°C, interrupted by thorough vortexing to form multilamellar vesicles. Large unilamellar vesicles (LUV) were prepared by repeated extrusion of the multilamellar vesicles through 100 nm polycarbonate filters (Avestin) using the LiposoFast Basic apparatus (Avestin, Canada). Vesicles were separated from nonencapsulated dye by gel filtration on Sephadex G-50 using 100 mM NaCl, 0.5 mM Na2EDTA and 5 mM HEPES, pH 7.4 as elution buffer. Fractions with the highest content of the entrapped dye were pooled and dissolved in the same buffer to the final phospholipid concentration of 60 μM.
The release of vesicle contents after adding LPPO solutions was evaluated by the increased fluorescence intensity of CF released into the milieu which we express as the percentage of leakage. […] Maximum release of CF fluorescence (F max) was induced by lysing the vesicles with 0.1% (v/v) Triton X-100. Fluorescence intensity was monitored in time (excitation at 480 nm, emission at 515 nm) at 25°C using FluoroMax-3 (Jobin Yvon, Horriba) spectrofluorometer. The following equation was used to calculate the percent of CF leakage: % CF leakage = [(F–F 0)/(F max−F 0)] × 100, where F is the actual fluorescence intensity and F 0 is the fluorescence intensity before addition of the permeabilizing agent. Using Fityk software the time courses of liposome lysis were fitted by a function: α(1-exp(-t/τ))^n, where t is the time, α is the amplitude of the effect, τ is the time constant of the effect, and n is Hill coefficient (S3 Fig).

[5] = tested on: Staphylococcus haemolyticus 16568; assay: MIC, standard microdilution method; conditions: Staphylococcus haemolyticus, 16568, 24 h
B. subtilis 168 = assay: Selection for resistant strains, stepwise two-fold increased concentration; format: cell-based, Bacillus subtilis; conditions: 24 h cultures, two-fold increased concentration each transfer; rifampicin from 0.01 mg/L, DR5026 from 0.5 mg/L
Method: A) B. subtilis. […] Then, the growth of the culture was evaluated by OD600nm and an aliquot of the culture was transferred to a new tube with fresh medium and a two-fold increased concentration of the active compound. This template was followed until no growth was detected for DR5026 or until B. subtilis grew at 5 mg/L of rifampicin.

[6] = tested on: Bacteroides fragilis CCM 4712; assay: MIC against anaerobic bacteria, tube dilution method; format: cell-based; conditions: CCM4712, anaerobic conditions, 35°C, 48 h (confirmed 72 h)
[7] = Conductance measurements in planar lipid membranes (BLM); format: biochemical; conditions: 5 mg/L, 1M KCl, 10 mM Tris, pH 7.4, 45 mV
Method: A Teflon chamber was divided into two compartments connected by a circular aperture of about 0.5 mm in diameter. Black lipid bilayer membranes were formed by painting a solution of 3% (w/v) asolectin (type IIS phosphatidylcholine; Sigma-Aldrich) in n-decane/butanol (9:1, v/v) across the hole. Both compartments contained 2 ml of 10 mM Tris, 1M KCl, pH 7.4. The temperature was kept at 25°C. Tested LPPO was added to the cis side of the membrane at a concentration of 5 mg/L. The membrane current was measured with Ag/AgCl electrodes (Theta) with salt bridges (applied voltage 45 mV, cis positive), amplified by LCA-200-100G or LCA-4k-1G amplifier (Femto) and digitized by KPCI-3108 card (Keithly). The signal was processed by QuB software. The histograms of single pore conductance was calculated from at least 500 events using a 50 pS bin size and fitted with Gaussian functions using Fityk software.

[8] = tested on: Clostridium perfringens CCM 4435; assay: microbe, parasite or virus in culture; format: cell-based; conditions: CCM4435

| Structure (SMILES) | CMC in H2O [1] | MIC (Bacillus subtilis; 24 h) [µg/mL] | MIC (Bacillus subtilis; read-out: MIC against wt B. subtilis, B. subtilis 168, as stated for the resistance selection experiment) [µg/mL] | MIC [2] [µg/mL] | MIC [3] [µg/mL] | Hill coefficient n, rapid initial phase of CF release [4] | fit Hill coefficient n, initial phase f(x) ([4]; S3 Fig data set) | fit Hill coefficient n, latter phase g(x) ([4]; S3 Fig data set) | fit amplitude α, initial phase f(x) of liposome lysis ([4]; S3 Fig data set) | fit amplitude α, latter phase g(x) of liposome lysis ([4]; S3 Fig data set) | fit time constant τ, initial phase f(x) ([4]; S3 Fig data set) [s] | fit time constant τ, latter phase g(x) ([4]; S3 Fig data set) [s] | MIC [5] [µg/mL] | development of resistance (B. subtilis 168) | MIC [6] [µg/mL] | most frequent single pore conductance step [7] [pS] | MIC [8] [µg/mL] | MIC (Bacillus subtilis; 24 h, 35°C, brain heart infusion broth) [µg/mL] | further conductance states observed [7] |
| --- | --- | --- | --- | --- | --- | --- | --- | --- | --- | --- | --- | --- | --- | --- | --- | --- | --- | --- | --- |
| CCCCCCCCCCCCCCCCOP(=O)(CCN1C[C@@H](O)[C@H](O)C1)OC[C@H]1O[C@@H](n2ccc(=O)[nH]c2=O)[C@H](O)[C@@H]1O (stereo partly drawn) [DR5026] | 4 mM and 3 g/L | 3.12 (≈ 4.72 µM) | ~3 (≈ 4.53 µM) | 3.12 (≈ 4.72 µM) | 3.12 (≈ 4.72 µM) | 0.5 ± 0.2 | 0.6 | 3.1 | 29.7 | 76.4 | 175.5 | 28.2 | 50 (≈ 75.6 µM) | failed to obtain cells that would grow at concentrations exceeding the MIC | 12.5 (≈ 18.9 µM) | 310 ± 128 | 12.5 (≈ 18.9 µM) |  |  |
| CCCCCCCCCCCCCCCCOCCCOP(=O)(CCN1C[C@@H](O)[C@H](O)C1)OC[C@H]1O[C@@H](n2ccc(=O)[nH]c2=O)[C@H](O)[C@@H]1O (stereo partly drawn) [DR5047] | 3 mM and 2 g/L |  |  | 6.25 (≈ 8.68 µM) | 6.25 (≈ 8.68 µM) | 0.7 ± 0.1 |  |  |  |  |  |  | > 200 |  | 6.25 (≈ 8.68 µM) | 70 ± 37 | 12.5 (≈ 17.4 µM) | 6.25 (≈ 8.68 µM) | 270 ± 79 pS and 510 ± 77 pS |
